# Test results: patent US11053205B2, “Phenazine derivatives as antimicrobial agents” (University of Florida Research Foundation, Incorporated, priority 2017, dated 2021)
# Read-outs that look alike come from different tables or passages of the source. Marks after values point to notes of the source that are not given here.
# Tests used:
# [1] = test system: VRE 700221; experiment: MIC, broth microdilution (CLSI); conditions: for VRE 700221 MIC: 16 to 18 hours at 37° C.
# [2] = test system: MRSA BAA-1707; experiment: MIC, broth microdilution (CLSI); conditions: 16 to 18 hours at 37° C.; 0.10 = lowest concentration tested
# [3] = test system: MRSE 35984; experiment: MIC, broth microdilution (CLSI); conditions: for MRSE 35984 MIC: 16 to 18 hours at 37° C.
# [4] = test system: human red blood cells
# [5] = test system: MRSA BAA-1707 biofilms; experiment: Calgary Biofilm Device (CBD) assay, MBC/MBEC; conditions: for MRSA BAA-1707 MBEC / MRSA BAA-1707 MBC: CBD; for MRSA BAA-1707 MBEC: biofilm eradication; for MRSA BAA-1707 MBC: planktonic killing
# [6] = test system: HeLa cells
# [7] = test system: MRSE 35984 biofilms; experiment: Calgary Biofilm Device (CBD) assay, MBC/MBEC; conditions: CBD; for MRSE 35984 MBEC: biofilm eradication; for MRSE 35984 MBC: planktonic killing
# [8] = test system: MRSA-2 biofilms; experiment: Calgary Biofilm Device (CBD) assay, MBC/MBEC
SMILES,VRE 700221 MIC [1],MRSA BAA-1707 MIC [2],MRSE 35984 MIC [3],other results
OC[C@H]1O[C@@H](Oc2c(Br)cc(Br)c3nc4ccccc4nc23)[C@H](O)[C@@H](O)[C@@H]1O [Compound 28],>100 µM,>100 µM,>100 µM,–
CCCc1cn(Cc2ccc3nc4c(OC(C)=O)c(Br)cc(Br)c4nc3c2)nn1 [Compound 74A],>100 µM,100 ^ μM,–,–
COCCOCCOCCOCCOC(=O)Oc1c(Br)cc(Br)c2nc3cc(Oc4ccccc4)ccc3nc12 [Compound 78A],0.3^a μM,0.1^b μM,0.1^b μM,Hemolysis at 200 μM [4]: ≤1%; MRSA BAA-1707 MBEC [5]: 4.69 µM; MRSA BAA-1707 MBC [5]: 18.8 µM
CC1=C(C)C(=O)C(COC(=O)OCOc2c(Br)cc(Br)c3nc4ccccc4nc23)=C(C)C1=O [86A],–,2.35 µM,–,MRSA BAA-1707 MBEC [5]: 75 µM
CCc1cccc2nc3c(Br)cc(Br)c(O)c3nc12 [Compound 37],>100 µM,>100 µM,>100 µM,–
Cc1cc2nc3c(O)c(Br)cc(Br)c3nc2c(C)c1C [59A],–,–,–,IC50 [6]: > 100 µM
CCc1cccc2nc3c(Br)cc(Br)c(O)c3nc12 [Compound 58A],>100 µM,>100 ^ μM,>100 µM,–
CCCc1ccc2nc3c(O)c(Br)cc(Br)c3nc2c1 [54A],–,–,–,IC50 [6]: > 50 µM
Cc1ccc2nc3c(O)c(Br)cc(Br)c3nc2c1C [HP 1-19],–,–,–,"Hemolysis at 200 μM ([4]; human, 1 h, 200 μM, pH 7.2): 5.3%; MIC ([1]; Enterococcus, VRE, read-out: VRE 700221 MIC, 16 to 18 hours at 37° C.): 0.15 µM; MIC ([3]; Staphylococcus epidermidis, MRSE, read-out: MRSE 35984 MIC, 16 to 18 hours at 37° C.): 0.3 µM"
CCOC(=O)c1ccc2nc3c(O)c(Br)cc(Br)c3nc2c1 [Compound 62A],2.35^a μM,–,–,–
COCCOCCOCCOC(=O)OCOc1c(Br)cc(Br)c2nc3ccccc3nc12 [Compound 80A],>100 µM,>100 µM,>100 µM,Hemolysis at 200 μM [4]: 1.4%
COCCOCCOCCOCCOC(=O)Oc1c(Br)cc(Br)c2nc3cc(Cl)ccc3nc12 [Compound 77A],0.1^b μM,0.0005^a μM,0.1^b μM,Hemolysis at 200 μM [4]: 1.1%; IC50 [6]: > 100 µM; MRSE 35984 MBEC [7]: 18.8 µM; MRSE 35984 MBC [7]: 9.38 µM
Oc1c(Br)cc(Br)c2nc3cc(Oc4ccccc4)ccc3nc12 [63A],0.2 µM,0.075 µM,0.1 µM,IC50 [6]: > 100 µM; MRSA BAA-1707 MBEC [5]: 2.35 µM
COCCOCCOCCOC(=O)OCOc1c(Br)cc(Br)c2nc3ccccc3nc12 [Compound 30],>100 µM,>100 µM,>100 µM,–
COCCOCCOCCOCCOC(=O)Oc1c(Br)cc(Br)c2nc3cc(Oc4ccccc4)ccc3nc12 [78A],–,0.1 µM,–,–
CS(=O)(=O)N1CCN(C(=O)Oc2c(Br)cc(Br)c3nc4ccccc4nc23)C1=O [Compound 31],3.13 µM,–,0.78 µM,MRSA BAA-1707 MBEC [5]: 75 µM
"CC(=O)NC[C@H]1CN(c2ccc(N3CCOCC3)c(F)c2)C(=O)O1 [linezolid, reference compound]",–,12.5 ^ μM,–,"Hemolysis at 200 μM ([4]; human, 1 h, 200 μM, pH 7.2): ≤1%; MBC ([5]; Staphylococcus aureus, read-out: MRSA BAA-1707 MBC): 31.3 µM; biofilm eradication activities against MRSA biofilms ([5]; at 2,000 μM (highest concentration tested)): no biofilm eradication activities"
NC(=O)c1cnccn1 [Pyrazinamide],–,–,–,"MRSA-2 MBEC ([8]; CBD, biofilm eradication): >2000/>2000 μM; MBC ([8]; Staphylococcus aureus, MRSA, read-out: MRSA-2 MBC): > 2000 µM"
Cc1cc2nc3c(O)c(Br)cc(Br)c3nc2c(C)c1C [Compound 59A],–,0.59^a μM,0.1^b μM,Hemolysis at 200 μM [4]: 1.3%; MRSA BAA-1707 MBEC [5]: 75 µM; MRSA BAA-1707 MBC [5]: 150 µM; MRSE 35984 MBEC [7]: 5 µM; MRSE 35984 MBC [7]: 25 µM
CCOc1ccc2nc3c(O)c(Br)cc(Br)c3nc2c1 [Compound 60A],>100 µM,>100 ^ μM,18.8^a μM,–
